Results reported in patent US8415469B2, “Compounds and methods for kinase modulation, and indications therefor” (Plexxikon Inc., priority 2005, dated 2013).

Tests used:
Format in all cases: biochemical
B-Raf V600E = target: T1, B-Raf V600E (Homo sapiens, UniProt P15056, V600E); assay: AlphaScreen kinase assay, B-Raf V600E; settings: read-out: IC50, activity toward kinase B-Raf V600E
T1 construct: P4254. pFastBacBD-CDC37 BRAF D437-K722-X, V600E; His6 with pFastBac HT leader (TEV site) (N); made in house; host or cells: Sf9 (baculovirus; chaperone CDC37 co-expressed)

Yes = target: T2, Yes (Homo sapiens, UniProt P07947); assay: Z'-Lyte FRET kinase assay (Invitrogen), Yes; settings: read-out: IC50, activity toward kinase Yes
T2 construct: purchased Invitrogen (Carlsbad, Calif.), screening service
Description: The effect of potential modulators of kinase activity can be measured in a variety of different assays known in the art. For example, direct radiometric, indirect FRET or AlphaScreen assays may be used to assess the level of phosphorylation of a substrate in the presence of test compounds in order to determine the inhibitory affect of the compound on the kinase. Invitrogen (Carlsbad, Calif.) uses a FRET based assay for Btk, EGFR, EphB2, Flt3, lrak4, Kdr, MAP2K1, MAPKAPK2, PDGFRB, PKC theta, Stk6 and Yes. For these assays, compounds of the invention were screened by Invitrogen using Z′-Lyte™ kinase assay.
Briefly, the Invitrogen kinase assay involves use of a specific peptide substrate optimized for each kinase, containing a fluorophore at each end that make up the FRET pair. The peptide sensitivity to proteolytic cleavage depends on phosphorylation of the peptide. Non-phosphorylated peptide is cleaved by a protease while peptide phosphorylated by the kinase is not cleaved. Cleavage of the peptide disrupts the FRET between the donor (coumarin) and acceptor (fluorescein) fluorophores, resulting in an increase in the ratio of donor emission to acceptor emission. The emission ratio of coumarin to fluorescein is used to assess the reaction progress. The extent of phosphorylation is determined from the emission ratio, which is low when the kinase is active (phosphorylated peptide is not cleaved, FRET pair connected) or higher for inhibited kinase (non-phosphorylated peptide is cleaved, FRET pair separated). Thus, the assay involves a kinase reaction in the presence of varying concentrations of a given compound, a development reaction with site specific protease, and detection of the fluorescent emission ratio of coumarin and fluorscein. […] Reaction conditions for each kinase are determined to provide optimal reaction times, incubation temperature, kinase and ATP concentrations. Test samples are made up in 1× kinase buffer (50 mM HEPES pH 7.5, 50 mM MgCl2, 5 mM EGTA, 0.05% BRIJ-35) and compound at desired concentration prepared in DMSO such that the final DMSO is 1%. […] Typically, assay plates are prepared to 10 μl final volume per sample, adding 2.5 μl of compound at 4× the desired concentration in 4% DMSO (serial dilution of compound provides concentration curve), 5 μl of the desired kinase mixed with Z′-LYTE™ peptide substrate (2× in 2× kinase buffer, final peptide at 2 μM), and 2.5 μl of 4×ATP solution. All kinase except for MAP2K1 were at 10 μM ATP in the kinase reaction, while MAP2K1 was at 100 μM. Samples are mixed and the kinase reaction is incubated 1 hour at room temperature, after which 5 μl of development solution is added and mixed. After incubation for another 1 hour at room temperature, 5 μl of stop reagent is added to each sample and mixed. The fluorescence signals are measured to determine the emission ratio.

Kdr = target: T3, Kdr (Homo sapiens, UniProt P35968); assay: Z'-Lyte FRET kinase assay (Invitrogen), Kdr; settings: read-out: IC50, activity toward kinase Kdr
T3 construct: purchased Invitrogen (assay run by Invitrogen)

Stk6 = target: T4, Stk6 (Homo sapiens, UniProt O14965); assay: Z'-Lyte FRET kinase assay (Invitrogen), Stk6; settings: read-out: IC50, activity toward kinase Stk6
T4 construct: purchased Invitrogen (Carlsbad, Calif.), screening service
T4 sequence (O14965 1-403): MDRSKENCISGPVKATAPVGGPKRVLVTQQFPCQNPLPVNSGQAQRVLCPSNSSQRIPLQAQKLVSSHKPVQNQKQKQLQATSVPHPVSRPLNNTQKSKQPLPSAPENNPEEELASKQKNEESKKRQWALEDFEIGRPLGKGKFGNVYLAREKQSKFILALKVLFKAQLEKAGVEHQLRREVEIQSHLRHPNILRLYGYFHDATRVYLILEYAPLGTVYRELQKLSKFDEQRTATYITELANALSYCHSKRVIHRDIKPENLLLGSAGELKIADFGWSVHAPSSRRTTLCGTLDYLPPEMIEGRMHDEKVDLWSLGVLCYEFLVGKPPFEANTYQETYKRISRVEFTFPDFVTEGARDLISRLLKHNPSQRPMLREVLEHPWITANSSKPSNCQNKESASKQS

FGFR1 = target: T5, FGFR1 (Homo sapiens, UniProt P11362, C488A/C584S); assay: AlphaScreen kinase assay, FGFR1; settings: read-out: IC50, activity toward kinase FGFR
T5 construct: P1351.pET N6 BI-PTP FGFR A458-E765-X C488A, C584S; made in house; host or cells: E. coli (PTP1B co-expressed)

Fms = target: T6, Fms (Homo sapiens, UniProt P07333); assay: AlphaScreen kinase assay, Fms; settings: read-out: IC50, activity toward kinase Fms
T6 construct: purchased Upstate Biotechnology

Pyk2 = target: T7, Pyk2 (Homo sapiens, UniProt Q14289); assay: AlphaScreen kinase assay, Pyk2; settings: read-out: IC50, activity toward kinase Pyk2
T7 construct: purchased Upstate Biotechnology

B-Raf = target: T8, B-Raf (Homo sapiens, UniProt P15056); assay: AlphaScreen kinase assay, B-Raf; settings: read-out: IC50, activity toward kinase B-Raf
T8 construct: purchased Upstate Biotechnology

c-Raf-1 = target: T9, c-Raf-1 (Homo sapiens, UniProt P04049); assay: AlphaScreen kinase assay, c-Raf-1; settings: read-out: IC50, activity toward kinase c-Raf-1
T9 construct: purchased Upstate Biotechnology

Ret = target: T10, Ret (Homo sapiens, UniProt P07949); assay: AlphaScreen kinase assay, Ret; settings: read-out: IC50, activity toward kinase Ret
T10 construct: P1378.pET-SF BI-PTP RET H661-R1012 HIS; made in house
T10 sequence (P07949 with tags, fused parts or gaps): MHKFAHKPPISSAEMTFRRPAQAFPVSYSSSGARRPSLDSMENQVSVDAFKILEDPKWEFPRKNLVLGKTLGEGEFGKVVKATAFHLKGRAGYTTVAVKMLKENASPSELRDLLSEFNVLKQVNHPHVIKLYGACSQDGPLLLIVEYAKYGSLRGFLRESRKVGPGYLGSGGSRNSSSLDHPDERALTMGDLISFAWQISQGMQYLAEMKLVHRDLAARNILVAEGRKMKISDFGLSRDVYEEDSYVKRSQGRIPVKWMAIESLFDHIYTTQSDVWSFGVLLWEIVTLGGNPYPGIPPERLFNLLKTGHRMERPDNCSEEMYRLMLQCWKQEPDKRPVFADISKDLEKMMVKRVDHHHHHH

Fak = target: T11, Fak (Homo sapiens, UniProt Q05397); assay: AlphaScreen kinase assay, Fak; settings: read-out: IC50, activity toward kinase Fak
T11 construct: P1358.pFastBacHtb FAK S411-Q686-X; His6 with pFastBacHTb leader (TEV site) (N); made in house; host or cells: Sf9 (baculovirus)

Src = target: T12, Src (Homo sapiens, UniProt P12931); assay: AlphaScreen kinase assay, Src; settings: read-out: IC50, activity toward kinase Src
T12 construct: P1144. pET-N6 BI-PTP SRC V86-L536-X; made in house

Flt1 = target: T13, Flt1 (Homo sapiens, UniProt P17948); assay: AlphaScreen kinase assay, Flt1; settings: read-out: IC50, activity toward kinase Flt1
T13 construct: P1826.pETN6 BI-PTP FLT1 M799-D1165-X WT; His6 (N); made in house; host or cells: E. coli (PTP1B co-expressed)
T13 sequence (P17948 with tags, fused parts or gaps): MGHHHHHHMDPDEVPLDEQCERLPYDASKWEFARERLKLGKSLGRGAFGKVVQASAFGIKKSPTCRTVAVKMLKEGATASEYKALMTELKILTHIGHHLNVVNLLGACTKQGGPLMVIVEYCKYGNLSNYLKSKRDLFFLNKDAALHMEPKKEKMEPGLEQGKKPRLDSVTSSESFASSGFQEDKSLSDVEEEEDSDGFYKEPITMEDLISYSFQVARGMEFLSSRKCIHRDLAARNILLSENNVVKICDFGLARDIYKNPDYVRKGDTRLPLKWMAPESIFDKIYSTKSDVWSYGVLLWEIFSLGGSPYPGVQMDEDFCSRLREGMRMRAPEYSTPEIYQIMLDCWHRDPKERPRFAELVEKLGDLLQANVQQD
Description: AlphaScreen assay was used to screen additional kinases. The assay is similarly dependent on the phosphorylation of a peptide substrate. In this assay, an antibody that recognizes phosphorylated substrate is bound to an acceptor bead. The peptide substrate is attached to biotin, which binds to a donor head that contains streptavidin. Thus phosphorylated substrate is bound by antibody and streptavidin, bringing the donor and acceptor heads into close proximity when kinase is not inhibited. The donor produces singlet oxygen which results in emission from the acceptor when they are in close proximity. Conversely, when kinase is inhibited, the donor and acceptor beads are not associated and the emission from the acceptor is reduced.
AlphaScreen assays were done using compounds dissolved in DMSO to a concentration of 20 mM. The compounds were diluted accordingly to the desired final concentrations in each sample well, using 1:3 serial dilution for a total of 8 concentration points. Plates were prepared such that each kinase reaction is 20 μl in 1× kinase buffer, 5% DMSO and 10 μM ATP. After incubation of the kinase reaction for 1 hour at room temperature, 5 μl of donor beads in stop buffer (50 mM EDTA in 1× kinase buffer) was added, the sample was mixed and incubated for 20 minutes at room temperature before adding 5 μl of acceptor beads in stop buffer. The samples were incubated for 60 minutes at room temperature and the signal per well was read on AlphaQuest reader.

Jnk3 = target: T14, Jnk3 (Homo sapiens, UniProt P53779); assay: AlphaScreen kinase assay, Jnk3; settings: read-out: IC50, activity toward kinase Jnk3
T14 construct: purchased Upstate Biotechnology

Kit = target: T15, Kit (Homo sapiens, UniProt P10721); assay: AlphaScreen kinase assay, Kit; settings: read-out: IC50, activity toward kinase Kit
T15 construct: P1332.N6 BI PTP KIT M552-K948-X COD; His6 (N); made in house; host or cells: E. coli (PTP1B co-expressed)

Measured: IC50

T8 sequence (P15056 whole entry): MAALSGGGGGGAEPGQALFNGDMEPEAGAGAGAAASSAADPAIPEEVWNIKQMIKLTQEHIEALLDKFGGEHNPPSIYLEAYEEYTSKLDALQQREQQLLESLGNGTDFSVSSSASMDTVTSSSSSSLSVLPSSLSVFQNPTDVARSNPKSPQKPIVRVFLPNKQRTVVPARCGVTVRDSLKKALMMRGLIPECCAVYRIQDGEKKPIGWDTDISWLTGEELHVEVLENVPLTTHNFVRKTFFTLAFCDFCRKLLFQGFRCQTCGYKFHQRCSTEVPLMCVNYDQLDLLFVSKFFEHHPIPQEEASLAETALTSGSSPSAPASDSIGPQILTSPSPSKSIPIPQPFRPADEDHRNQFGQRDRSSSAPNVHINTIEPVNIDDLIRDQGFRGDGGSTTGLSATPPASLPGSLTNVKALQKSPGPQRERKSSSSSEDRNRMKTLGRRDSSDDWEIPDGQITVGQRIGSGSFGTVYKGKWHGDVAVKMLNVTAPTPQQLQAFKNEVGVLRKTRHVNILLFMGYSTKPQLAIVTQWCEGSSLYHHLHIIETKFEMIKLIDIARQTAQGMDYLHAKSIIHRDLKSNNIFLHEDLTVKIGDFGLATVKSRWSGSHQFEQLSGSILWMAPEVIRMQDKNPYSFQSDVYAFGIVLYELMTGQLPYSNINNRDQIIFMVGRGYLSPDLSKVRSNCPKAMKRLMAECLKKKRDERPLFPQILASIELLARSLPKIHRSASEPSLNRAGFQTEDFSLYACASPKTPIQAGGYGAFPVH
T9 sequence (P04049 whole entry): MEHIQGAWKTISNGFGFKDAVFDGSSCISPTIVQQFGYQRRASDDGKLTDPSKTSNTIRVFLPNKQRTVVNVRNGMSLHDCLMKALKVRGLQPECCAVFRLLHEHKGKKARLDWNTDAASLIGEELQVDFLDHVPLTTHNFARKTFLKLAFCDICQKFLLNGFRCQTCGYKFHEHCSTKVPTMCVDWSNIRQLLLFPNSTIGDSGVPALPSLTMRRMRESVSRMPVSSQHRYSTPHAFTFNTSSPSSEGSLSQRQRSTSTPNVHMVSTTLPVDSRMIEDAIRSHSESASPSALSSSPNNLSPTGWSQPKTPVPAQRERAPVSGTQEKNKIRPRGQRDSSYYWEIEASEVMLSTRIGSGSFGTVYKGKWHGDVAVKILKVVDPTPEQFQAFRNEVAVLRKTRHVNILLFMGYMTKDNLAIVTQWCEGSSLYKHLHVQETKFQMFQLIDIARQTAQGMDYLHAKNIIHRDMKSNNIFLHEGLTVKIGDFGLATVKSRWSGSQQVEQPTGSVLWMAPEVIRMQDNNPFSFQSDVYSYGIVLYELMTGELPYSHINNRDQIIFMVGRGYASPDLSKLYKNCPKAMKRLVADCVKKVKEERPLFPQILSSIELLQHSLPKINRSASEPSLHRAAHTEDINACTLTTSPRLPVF
T12 sequence (P12931 with tags, fused parts or gaps): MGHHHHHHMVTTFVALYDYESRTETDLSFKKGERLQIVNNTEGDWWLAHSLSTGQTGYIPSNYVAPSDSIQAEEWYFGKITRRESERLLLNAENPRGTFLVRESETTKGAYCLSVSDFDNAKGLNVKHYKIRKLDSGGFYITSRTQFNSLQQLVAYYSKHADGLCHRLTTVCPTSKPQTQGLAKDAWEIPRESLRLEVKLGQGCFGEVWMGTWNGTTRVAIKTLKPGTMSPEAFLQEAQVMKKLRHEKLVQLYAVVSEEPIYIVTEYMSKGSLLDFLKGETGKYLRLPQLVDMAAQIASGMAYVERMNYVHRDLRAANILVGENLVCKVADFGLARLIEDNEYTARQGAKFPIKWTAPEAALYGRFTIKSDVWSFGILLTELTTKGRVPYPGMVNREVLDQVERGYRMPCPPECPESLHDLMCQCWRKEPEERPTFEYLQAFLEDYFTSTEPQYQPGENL
T6 sequence (P07333 20-972): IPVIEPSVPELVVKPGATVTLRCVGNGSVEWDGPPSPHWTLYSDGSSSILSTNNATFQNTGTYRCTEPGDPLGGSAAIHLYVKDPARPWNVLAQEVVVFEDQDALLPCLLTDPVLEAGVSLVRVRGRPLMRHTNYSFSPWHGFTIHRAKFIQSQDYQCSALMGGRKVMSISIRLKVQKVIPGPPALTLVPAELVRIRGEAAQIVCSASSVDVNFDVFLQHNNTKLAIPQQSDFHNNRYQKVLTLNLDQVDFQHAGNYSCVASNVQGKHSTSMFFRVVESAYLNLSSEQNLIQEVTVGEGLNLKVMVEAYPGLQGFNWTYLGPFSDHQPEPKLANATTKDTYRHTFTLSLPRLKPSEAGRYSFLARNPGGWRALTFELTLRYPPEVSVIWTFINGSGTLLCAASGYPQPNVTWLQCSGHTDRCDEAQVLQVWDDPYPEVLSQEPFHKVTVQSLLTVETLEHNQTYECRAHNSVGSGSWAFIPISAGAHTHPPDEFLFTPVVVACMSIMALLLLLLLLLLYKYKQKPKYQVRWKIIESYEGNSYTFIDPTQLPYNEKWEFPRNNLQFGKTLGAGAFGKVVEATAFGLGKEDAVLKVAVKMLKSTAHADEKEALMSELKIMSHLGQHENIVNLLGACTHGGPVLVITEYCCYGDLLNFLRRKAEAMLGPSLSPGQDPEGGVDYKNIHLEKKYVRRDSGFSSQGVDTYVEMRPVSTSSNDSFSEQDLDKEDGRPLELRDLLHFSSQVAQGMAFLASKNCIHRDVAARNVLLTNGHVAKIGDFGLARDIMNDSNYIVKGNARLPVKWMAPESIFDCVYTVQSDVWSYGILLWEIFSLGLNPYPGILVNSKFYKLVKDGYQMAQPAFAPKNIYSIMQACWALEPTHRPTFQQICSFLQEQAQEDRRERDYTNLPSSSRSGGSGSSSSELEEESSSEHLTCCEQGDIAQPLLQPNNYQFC
T2 sequence (P07947 whole entry): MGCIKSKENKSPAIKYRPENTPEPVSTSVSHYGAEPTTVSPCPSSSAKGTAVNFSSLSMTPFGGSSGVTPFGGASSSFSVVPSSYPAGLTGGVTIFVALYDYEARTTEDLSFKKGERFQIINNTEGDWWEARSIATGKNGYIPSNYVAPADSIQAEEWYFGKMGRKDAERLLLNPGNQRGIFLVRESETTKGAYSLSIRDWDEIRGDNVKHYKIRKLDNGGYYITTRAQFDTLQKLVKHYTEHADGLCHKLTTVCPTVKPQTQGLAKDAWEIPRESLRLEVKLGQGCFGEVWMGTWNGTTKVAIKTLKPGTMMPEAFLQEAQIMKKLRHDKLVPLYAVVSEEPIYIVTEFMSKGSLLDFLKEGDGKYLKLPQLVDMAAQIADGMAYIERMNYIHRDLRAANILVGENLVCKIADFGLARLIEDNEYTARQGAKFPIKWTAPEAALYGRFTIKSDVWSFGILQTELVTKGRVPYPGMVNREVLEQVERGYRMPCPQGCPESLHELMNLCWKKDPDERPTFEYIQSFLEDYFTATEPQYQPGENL
T3 sequence (P35968 20-1356): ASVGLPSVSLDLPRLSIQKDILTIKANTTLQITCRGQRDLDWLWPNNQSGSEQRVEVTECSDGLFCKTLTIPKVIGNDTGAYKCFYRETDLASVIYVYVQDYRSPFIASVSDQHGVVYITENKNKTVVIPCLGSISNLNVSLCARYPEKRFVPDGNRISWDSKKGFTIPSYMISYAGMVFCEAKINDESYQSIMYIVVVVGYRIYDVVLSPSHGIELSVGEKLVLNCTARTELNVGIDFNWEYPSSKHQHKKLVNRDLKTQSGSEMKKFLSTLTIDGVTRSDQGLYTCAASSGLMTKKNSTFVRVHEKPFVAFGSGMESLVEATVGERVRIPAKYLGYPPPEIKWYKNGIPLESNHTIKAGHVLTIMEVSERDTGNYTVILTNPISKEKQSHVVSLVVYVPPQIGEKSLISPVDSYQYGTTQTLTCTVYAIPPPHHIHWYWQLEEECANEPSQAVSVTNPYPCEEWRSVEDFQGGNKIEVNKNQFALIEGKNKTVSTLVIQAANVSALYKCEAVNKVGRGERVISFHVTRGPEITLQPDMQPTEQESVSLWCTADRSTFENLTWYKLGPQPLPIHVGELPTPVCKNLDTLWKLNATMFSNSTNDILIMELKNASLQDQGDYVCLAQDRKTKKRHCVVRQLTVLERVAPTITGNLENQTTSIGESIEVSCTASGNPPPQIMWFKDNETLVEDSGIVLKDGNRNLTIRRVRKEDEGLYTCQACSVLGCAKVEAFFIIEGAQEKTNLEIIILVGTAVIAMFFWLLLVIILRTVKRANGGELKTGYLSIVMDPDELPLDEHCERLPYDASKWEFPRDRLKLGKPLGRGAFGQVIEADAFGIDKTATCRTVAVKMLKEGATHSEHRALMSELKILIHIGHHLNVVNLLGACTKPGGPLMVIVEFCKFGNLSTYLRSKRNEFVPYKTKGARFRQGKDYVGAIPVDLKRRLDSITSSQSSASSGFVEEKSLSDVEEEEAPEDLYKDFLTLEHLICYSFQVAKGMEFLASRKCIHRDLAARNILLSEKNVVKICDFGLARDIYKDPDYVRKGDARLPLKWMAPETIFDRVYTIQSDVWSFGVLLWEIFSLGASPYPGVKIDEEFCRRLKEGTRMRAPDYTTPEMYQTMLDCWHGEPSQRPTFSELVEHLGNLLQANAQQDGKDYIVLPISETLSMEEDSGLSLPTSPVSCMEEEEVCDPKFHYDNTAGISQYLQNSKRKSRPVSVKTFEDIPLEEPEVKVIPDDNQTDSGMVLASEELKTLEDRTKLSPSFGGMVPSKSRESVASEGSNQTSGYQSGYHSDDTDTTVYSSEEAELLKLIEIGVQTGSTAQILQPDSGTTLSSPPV
T5 sequence (P11362 458-765 C488A/C584S): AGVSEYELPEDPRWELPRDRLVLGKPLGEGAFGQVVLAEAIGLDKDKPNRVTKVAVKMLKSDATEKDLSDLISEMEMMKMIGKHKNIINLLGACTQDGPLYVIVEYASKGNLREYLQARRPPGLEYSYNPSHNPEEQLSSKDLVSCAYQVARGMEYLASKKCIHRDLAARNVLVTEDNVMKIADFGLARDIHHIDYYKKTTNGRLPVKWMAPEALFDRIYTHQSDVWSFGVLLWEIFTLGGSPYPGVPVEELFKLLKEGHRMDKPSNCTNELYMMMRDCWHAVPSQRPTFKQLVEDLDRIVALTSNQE

c1csc(CNc2ccc(Cc3c[nH]c4ncccc34)cn2)c1 [Compound P-0129]
≤ 10 µM: B-Raf V600E | Yes | Kdr | Stk6 | FGFR1 | Fms

CCCS(=O)(=O)Nc1ccc(F)c(C(O)c2c[nH]c3ncc(Br)cc23)c1F (centres unmarked) [Compound P-0188, Propane-1-sulfonic acid {3-[(5-bromo-1H-pyrrolo[2,3-b]pyridin-3-yl)-hydroxy-methyl]-2,4-difluoro-phenyl}-amide]
≤ 10 µM: Pyk2 | B-Raf V600E | Yes | B-Raf | Stk6 | c-Raf-1

C(=C\c1c[nH]c2ncccc12)/c1ccc(NCc2ccccc2)cc1 [Compound P-0283]
≤ 10 µM: Yes | Stk6

O=C(Nc1ccc(F)c(C(O)c2c[nH]c3ncc(-c4cccnc4)cc23)c1F)OCc1ccccc1 (centres unmarked) [Compound P-0095, {2,4-Difluoro-3-[hydroxy-(5-pyridin-3-yl-1H-pyrrolo[2,3b]pyridin-3-yl)-methyl]-phenyl}-carbamic acid benzyl ester]
≤ 10 µM: Pyk2 | B-Raf V600E | Yes | B-Raf | Ret

COc1cccc(-c2ccc3c(CNS(=O)(=O)c4ccc(C)cc4)c[nH]c3n2)c1 [Compound P-0209]
≤ 10 µM: Yes | Fak | Src

O=C(c1ccc(NCc2ccccc2)nc1)c1c[nH]c2ncccc12 [Compound P-0483]
≤ 10 µM: Flt1 | B-Raf V600E | Yes | Jnk3 | Src | FGFR1 | Fms

COc1ccc(F)c(C(=O)c2c[nH]c3nccc(Cl)c23)c1 [Compound P-0175]
≤ 10 µM: B-Raf V600E | Yes | Kdr | Kit | Ret | FGFR1 | Fms

COC(=O)Nc1ccc(F)c(C(O)c2c[nH]c3ncc(-c4cccnc4)cc23)c1F (centres unmarked) [Compound P-0065, {2,4-difluoro-3-[hydroxy-(5-pyridin-3-yl-1H-pyrrolo[2,3b]pyridin-3-yl)-methyl]-phenyl}-carbamic acid methyl ester]
≤ 10 µM: Yes | Kdr | B-Raf | Stk6 | Ret

O=C(c1ccc(NCc2cccs2)nc1)c1c[nH]c2ncccc12 [Compound P-0237]
≤ 10 µM: B-Raf V600E | Yes | Stk6 | Src | Fms

CS(=O)(=O)Nc1ccc(F)c(C(=O)c2c[nH]c3ncc(Br)cc23)c1F [Compound P-0162, N-[3-(5-Bromo-1H-pyrrolo[2,3-b]pyridine-3-carbonyl)-2,4-difluoro-phenyl]-methanesulfonamide]
≤ 10 µM: B-Raf V600E | Yes | Kdr | B-Raf | Stk6 | c-Raf-1

CS(=O)(=O)Nc1ccc(F)c(C(=O)c2c[nH]c3ncc(-c4cccc(S(C)(=O)=O)c4)cc23)c1F [Compound P-0210]
not listed: Kdr | Stk6 | Pyk2 | Flt1 | Jnk3
≤ 10 µM: all other assays above

COc1ccc(-c2cnc3[nH]cc(C#Cc4ccccc4)c3c2)cc1OC [Compound P-0153]
≤ 10 µM: B-Raf V600E | Yes | Stk6
